Source: patent publication US20210000814A1, “RIMEGEPANT FOR CGRP RELATED DISORDERS” (Biohaven Pharmaceutical Holding Company Ltd., priority 2018, published 2021)

Tests used:
Format in all cases: in vivo, human
[1] = system: subjects with Acute Migraines; test: BHV3000-303 Phase 3 trial, rimegepant ODT, acute treatment of migraine: efficacy; conditions: Study 303; single dose
Protocol: Clinical Trial—BHV3000-303: Phase 3: Double-Blind, Randomized, Placebo-Controlled, Safety and Efficacy Trial of BHV-3000 (Rimegepant) Orally Discintegrating Tablet (ODT) for the Acute Treatment of Migraine (ClinicalTrials.gov Identifier: NCT03461757) • A phase 3 clinical study was conducted with 1812 participants, as follows. The purpose of this study is to compare the efficacy of BHV-3000 (rimegepant ODT) versus placebo in subjects with Acute Migraines. […] Pain freedom of rimegepant compared with placebo in the acute treatment of migraine will be measured using the number of evaluable subjects that report no pain at 2 hours post-dose. [Time Frame: Two hours post dose] will be measured on a 4 point Likert scale (0=none, 1=mild, 2=moderate, 3=severe) 2. Freedom from the most bothersome symptom (MBS) of rimegepant compared with placebo will be measured using the number of evaluable subjects that report the absence of their MBS at 2 hours post-dose. […] The MBS (nausea, phonophobia or photophobia) will measured using a binary scale (0=absent, 1=present). […] To measure rimegepant compared to placebo on the probability of requiring rescue medication will be assessed using the number of subjects that take rescue medication within […] administration of study medication (BHV3000 or placebo). […]

[2] = BHV3000-302 Phase 3 trial: safety and tolerability; conditions: Study 302
Protocol: In a double-blind, randomized, placebo-controlled, multicenter study (Study 302, NCT03237845) adults […] of age with at least a 1-year history of ICHD 3-beta migraine were eligible to participate. Following a 3- to 28-day screening period, subjects were randomized to receive rimegepant 75 mg or matching placebo and instructed to treat a single migraine attack with 1 dose of the blinded study drug (rimegepant or placebo) when headache pain reached moderate or severe intensity. The coprimary endpoints were pain freedom at 2 hours postdose and freedom from the most bothersome symptom (MBS) at 2 hours postdose. Safety assessments included adverse events (AEs), ECGs, vital signs, physical measurements, and routine laboratory tests, including assessment of liver function. Unless stated otherwise, values presented are mean±SD.

[3] = BHV3000-201 open label long-term safety study, interim analysis
Protocol: Clinical Trial—BHV3000-201: Open Label Safety Study in Acute Treatment of Migraine (ClinicalTrials.gov Identifier: NCT 03266588)
A phase 2/3 clinical study is conducted with about 2000 participants, as follows.
The purpose of this study is to evaluate safety and tolerability of BHV3000 (rimegepant).
Study Design • Study Type: Interventional (Clinical Trial) • Estimated Enrollment: 2000 participants • Intervention Model: Single Group Assignment • Masking: None (Open Label) • Primary Purpose: Treatment • Official Title: A Multicenter, Open Label Long-Term Safety Study of BHV3000 in the Acute Treatment of Migraine • Actual Study Start Date: Aug. 30, 2017 • Estimated Primary Completion Date: July 2019 • Estimated Study Completion Date: July 2019
1. To assess the safety and tolerability of rimegepant (BHV-3000) by measuring the frequency and severity of adverse events and discontinuations due to adverse events [Time Frame: 52 weeks]Number of subjects with treatment-emergent adverse events as assessed through laboratory tests, ECGs, physical exam findings (safety and tolerability)
1. ALT or AST >3×ULN with total bilirubin >2×ULN [Time Frame: 52 weeks]elevated liver function tests
2. hepatic related adverse events and hepatic related adverse events that lead to discontinuation [Time Frame: 52 weeks]adverse events related to liver
Patients were allowed to treat migraine attacks of all severities (mild to severe) up to once daily for a full year. The initial results for hepatic safety and tolerability of rimegepant 75 mg in study participants is based upon review of both adverse events and regularly scheduled liver function tests. Interim hepatic data were reviewed by an external and independent panel of liver experts. […] In the aggregate, it was noted that compared to migraine trials with drugs other than rimegepant, there was a very low incidence of overall elevations of liver function test abnormalities in rimegepant treated patients (1.0% incidence of serum ALT or AST >3x ULN). Subjects will continue to participate in Study 201 with additional data analyses to be submitted in the NDA and required 120-day safety updates.

N[C@@H]1c2cccnc2[C@H](OC(=O)N2CCC(n3c(=O)[nH]c4ncccc43)CC2)CC[C@H]1c1cccc(F)c1F [Rimegepant, [(55,65,9R)-5-amino-6-(2,3-difluorophenyl)-6,7,8,9-tetrahydro-5H-cyclohepta[b]pyridin-9-yl]4-(2-oxo-3H-imidazo[4,5-b]pyridin-1-yl)piperidine-1-carboxylate]
clinical benefit through 48 hours on pain relief, pain freedom, MBS, functional disability versus placebo [1]: Lasting clinical benefit
bilirubin elevations greater than 2 times ULN [2]: no bilirubin elevations
transaminase level greater than 3 times ULN [2]: No subject
safety and tolerability profile ([2]; 75 mg oral tablet): favorable tolerability and safety
Serious AEs (SAEs) ([2]; back pain): 1 subject
safety and tolerability of long-term dosing ([3]; Study 201 interim analysis): consistent with the profile observed in phase 1- 3 studies
incidence of serum ALT or AST >3x ULN ([3]; Study 201 interim, 75 mg up to once daily): 1.0%
liver safety signal ([3]; Study 201 interim, incl. near-daily dosing (>=15 doses/month)): no liver safety signal detected
liver cases assessed as probably related to study drug ([3]; Study 201 interim, independent liver panel): no liver cases
